Experiments:
[1] = target: T1, mouse PPARγ ligand-binding site (GAL4 chimeric protein, pM-mPPARγ) (Mus musculus, UniProt P37238); assay: PPARγ ligand activity (GAL4-PPARγ chimera luciferase reporter assay in CV-1 cells); assay type: cell-based; conditions: for PPARγ ligand activity: specific activity relative to untreated control (DMSO = 1.00), CV-1 cells, 24 h
T1 construct: expressed in transfected cells; host or cells: CV-1 cells (African green monkey kidney)
T1 sequence (P37238 174-475 isoform P37238-2): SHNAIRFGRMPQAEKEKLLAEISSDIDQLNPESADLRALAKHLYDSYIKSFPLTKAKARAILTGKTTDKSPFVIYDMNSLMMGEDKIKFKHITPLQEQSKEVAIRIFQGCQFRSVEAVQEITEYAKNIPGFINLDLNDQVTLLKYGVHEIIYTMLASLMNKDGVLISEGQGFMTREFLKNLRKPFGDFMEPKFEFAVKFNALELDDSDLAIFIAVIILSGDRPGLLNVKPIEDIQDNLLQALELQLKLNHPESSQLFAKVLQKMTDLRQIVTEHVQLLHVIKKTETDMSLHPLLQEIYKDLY
Protocol: CV-1 cells (cultured cells derived from male African green monkey kidney) were seeded at 6×10^3 cells/well into a 96-well culture plate and cultured at 37° C. for 24 hours under 5% CO2 conditions. The medium used was DMEM (Dulbecco's Modified Eagle Medium; GIBCO) containing 10% FBS (fetal bovine serum), 10 ml/L penicillin/streptomycin solution (5000 IU/ml and 5000 μg/ml, respectively; GIBCO), and 37 mg/L ascorbic acid (Wako Pure Chemical Industries, Ltd.). The cells were washed with OPTI-MEM (GIBCO) and then transfected with pM-mPPARγ and 4×UASg-luc by use of Lipofectamine plus (GIBCO). […] The 4×UASg-luc is a reporter plasmid in which four copies of the upstream activating sequence of GAL4 (UASg) are incorporated upstream of a luciferase gene. Approximately 24 hours after transfection, the medium was replaced with a sample-containing medium (n=4), followed by culture for additional 24 hours. The sample dissolved in dimethyl sulfoxide (DMSO) or DMSO used as an untreated control was added at 1/1000 of the volume to the medium. The cells were washed with Ca- and Mg-containing phosphate-buffered saline (PBS+). Then, Luclite (Packard) was added thereto, and the luminescence intensity of luciferase was measured with a TopCount microplate scintillation/luminescence counter (Packard).
pM (plasmid from which PPARγ ligand-binding site gene was removed) was used as a control group instead of the pM-mPPARγ and subjected to measurement in the same way as for the measurement group. The ratio (measurement group/control group) of the average luminescence intensity values (n=4) between the measurement and control groups was calculated for each sample. Specific activity relative to the untreated control was used as the PPARγ ligand activity of the sample.

rats = assay: Toxicity test on coumaperine, oral administration; assay type: in vivo; conditions: 2000 mg/kg of body weight
Protocol: A toxicity test was conducted on the coumaperine of the present invention.
Coumaperine was orally administered at 2000 mg/kg of body weight to rats. […] Thus, the coumaperine was confirmed to have no or exceedingly low toxicity.

O=C(/C=C/C=C/c1ccc(O)cc1)N1CCCCC1 [Coumaperine, N-5-(4-hydroxyphenyl)-2E,4E-pentadienoyl piperidine]
PPARγ ligand activity, concentration dependence (in words) ([1]; 0.5 to 50 μg/ml, Table 1): concentration-dependent PPARγ ligand activity | PPARγ ligand activity ([1]; concentration added 0.5 μg/ml): 1.05 | PPARγ ligand activity ([1]; concentration added 1 μg/ml): 1.07 | PPARγ ligand activity ([1]; concentration added 2 μg/ml): 1.24 | PPARγ ligand activity ([1]; concentration added 5 μg/ml): 1.78 | PPARγ ligand activity ([1]; concentration added 10 μg/ml): 2.07 | PPARγ ligand activity ([1]; concentration added 20 μg/ml): 2.53 | PPARγ ligand activity ([1]; concentration added 30 μg/ml): 2.38 | PPARγ ligand activity ([1]; concentration added 50 μg/ml): 2.44 | death cases (rats): no death case was observed | toxic conditions (rats): toxic conditions were not particularly observed

Source: patent US20080132544A1, “Peroxisome Proliferator-Activated Receptor Ligand” (KANEKA CORPORATION, priority 2004, published 2008)
